Laboratory results reported in patent publication US9809623B2, “α4β7 peptide monomer and dimer antagonists” (Protagonist Therapeutics, Inc., priority 2014, dated 2017).
“And” between values parts separate entries of the source, which are not always exact repeats. Identical values can stand only once. Like-named read-outs stand apart in the source and are kept apart here. Numbered stars: 1 amine (or outer) side, 2 acyl side, 3 side chain; on linkers, the order of the positions; unused ones are H or OH. Bridge positions count the residues as written; N and C are the ends. Square brackets hold non-standard residues; d marks the D form. Peptide text beside a SMILES is read from it. I, II: the chains in the order shown. Phe(4-tBu) = CC(C)(C)c1ccc(C[C@H](N)C(=O)O)cc1; 2Nal = N[C@@H](Cc1ccc2ccccc2c1)C(=O)O; Diglycolyl = O=C(COCC(=O)[*:2])[*:1]; NMeR = CN[C@@H](CCCNC(=N)N)C(=O)O; β3hE = N[C@@H](CCC(=O)O)CC(=O)O; NMeK = CN[C@@H](CCCCN)C(=O)O; Pen = CC(C)(S)[C@H](N)C(=O)O

Assays:
rh integrin α4β7 = target: T1, rh integrin α4β7 (Homo sapiens, UniProt P13612+P26010); test: α4β7-MAdCAM Competition ELISA; type: binding
T1 construct: purchased R&D Systems 5397-A30
T1 sequence (P13612 34-977 limits assumed): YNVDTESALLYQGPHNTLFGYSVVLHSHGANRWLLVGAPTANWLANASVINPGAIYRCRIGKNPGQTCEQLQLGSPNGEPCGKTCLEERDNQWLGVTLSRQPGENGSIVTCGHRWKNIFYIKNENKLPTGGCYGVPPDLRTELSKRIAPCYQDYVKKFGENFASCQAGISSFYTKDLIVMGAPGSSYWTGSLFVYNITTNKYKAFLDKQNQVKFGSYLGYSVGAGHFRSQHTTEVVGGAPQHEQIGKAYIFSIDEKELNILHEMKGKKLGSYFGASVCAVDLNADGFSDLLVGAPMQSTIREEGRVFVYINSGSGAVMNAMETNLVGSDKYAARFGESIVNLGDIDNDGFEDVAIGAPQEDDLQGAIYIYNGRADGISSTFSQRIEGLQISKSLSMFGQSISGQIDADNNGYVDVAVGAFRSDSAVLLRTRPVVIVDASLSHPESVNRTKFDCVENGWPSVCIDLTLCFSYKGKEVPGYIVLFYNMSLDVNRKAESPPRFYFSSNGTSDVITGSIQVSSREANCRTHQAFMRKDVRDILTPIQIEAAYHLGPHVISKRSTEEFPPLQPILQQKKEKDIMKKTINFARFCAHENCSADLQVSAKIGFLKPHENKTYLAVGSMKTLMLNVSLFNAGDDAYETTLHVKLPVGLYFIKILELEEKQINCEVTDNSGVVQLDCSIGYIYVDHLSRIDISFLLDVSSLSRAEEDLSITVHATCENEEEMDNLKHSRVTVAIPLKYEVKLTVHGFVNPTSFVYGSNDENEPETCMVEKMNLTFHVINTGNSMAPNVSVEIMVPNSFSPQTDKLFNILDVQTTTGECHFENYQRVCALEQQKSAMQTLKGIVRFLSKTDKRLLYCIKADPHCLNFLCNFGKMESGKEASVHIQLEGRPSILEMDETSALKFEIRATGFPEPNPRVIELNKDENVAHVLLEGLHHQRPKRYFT
T1 sequence (P26010 20-723 limits assumed): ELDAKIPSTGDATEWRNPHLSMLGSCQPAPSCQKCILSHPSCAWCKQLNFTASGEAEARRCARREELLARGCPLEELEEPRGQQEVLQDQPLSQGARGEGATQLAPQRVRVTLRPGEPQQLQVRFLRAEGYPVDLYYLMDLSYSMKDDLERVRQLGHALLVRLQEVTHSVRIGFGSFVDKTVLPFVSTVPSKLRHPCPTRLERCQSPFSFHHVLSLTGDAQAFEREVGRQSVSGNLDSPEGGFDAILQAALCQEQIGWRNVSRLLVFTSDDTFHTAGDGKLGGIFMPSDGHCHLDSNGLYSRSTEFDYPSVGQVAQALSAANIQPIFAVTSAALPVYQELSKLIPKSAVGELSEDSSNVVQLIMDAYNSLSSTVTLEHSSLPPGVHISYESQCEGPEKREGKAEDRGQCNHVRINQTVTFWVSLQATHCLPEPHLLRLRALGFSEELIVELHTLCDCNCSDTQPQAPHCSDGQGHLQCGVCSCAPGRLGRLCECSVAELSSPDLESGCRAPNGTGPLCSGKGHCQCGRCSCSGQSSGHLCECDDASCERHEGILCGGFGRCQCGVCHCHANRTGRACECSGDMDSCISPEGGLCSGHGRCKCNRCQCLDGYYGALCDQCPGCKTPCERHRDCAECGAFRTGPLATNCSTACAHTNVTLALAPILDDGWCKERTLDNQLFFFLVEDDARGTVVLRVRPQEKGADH
Procedure, shortened: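 Recombinant human α4β7 was captured on nickel plates at 800 ng/well. Peptide in 3-fold serial dilution (final top 10 μM) competed with MAdCAM-1 (final 10 nM) for 1 h at room temperature in 50 mM Tris pH 7.6, 150 mM NaCl, 1 mM MnCl2 or MgCl2. Bound MAdCAM-1 was detected with anti-human IgG1-HRP/TMB at A450.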

α4β1 = target: T2, α4β1 (Homo sapiens, UniProt P05556+P13612, DEL729-798); test: α4β1-VCAM Competition ELISA; type: binding
T2 construct: purchased R&D Systems 5668-A4
T2 sequence (P13612 34-977 limits assumed, stated change not applied): as the sequence (P13612 34-977 limits assumed) above
T2 sequence (P05556 21-728 limits assumed, stated change not applied): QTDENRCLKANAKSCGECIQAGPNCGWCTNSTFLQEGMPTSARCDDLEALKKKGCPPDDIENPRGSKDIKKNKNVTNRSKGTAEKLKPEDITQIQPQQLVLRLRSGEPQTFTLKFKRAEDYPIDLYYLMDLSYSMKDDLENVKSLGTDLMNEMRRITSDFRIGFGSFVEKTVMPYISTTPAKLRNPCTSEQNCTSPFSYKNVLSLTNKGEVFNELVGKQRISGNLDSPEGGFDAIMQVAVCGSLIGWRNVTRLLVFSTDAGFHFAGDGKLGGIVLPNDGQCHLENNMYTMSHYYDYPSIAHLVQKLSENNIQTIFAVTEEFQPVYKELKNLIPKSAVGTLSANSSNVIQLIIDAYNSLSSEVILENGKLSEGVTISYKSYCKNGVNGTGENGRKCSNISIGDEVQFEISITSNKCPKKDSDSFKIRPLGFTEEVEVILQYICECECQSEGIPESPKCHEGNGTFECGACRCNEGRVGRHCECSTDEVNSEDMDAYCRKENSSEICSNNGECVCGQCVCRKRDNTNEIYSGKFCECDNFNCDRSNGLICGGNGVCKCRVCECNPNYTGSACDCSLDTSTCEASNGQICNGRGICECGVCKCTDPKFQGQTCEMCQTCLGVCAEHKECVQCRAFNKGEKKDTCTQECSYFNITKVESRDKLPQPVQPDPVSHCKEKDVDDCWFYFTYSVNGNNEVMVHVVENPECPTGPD
Procedure, shortened: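 Recombinant α4β1 (60 nM final) competed with serially diluted peptides (top final 100 μM) for VCAM-1 Fc coated at 400 ng/well, in Tris pH 7.6 with 1 mM MnCl2 or MgCl2, for 2 h at 37 °C. Bound integrin was detected with anti-CD49d 9F10 plus HRP anti-mouse IgG, using TMB read at 450 nm.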

α4β7 = α4β7 (Homo sapiens, UniProt P13612+P26010); test: α4β7-MAdCAM Cell Adhesion Assay (RPMI 8866 human cells); type: cell-based; set-up: host or cells: RPMI 8866 human B lymphoblastoid cells
Chain of α4β7 (P13612 34-1032): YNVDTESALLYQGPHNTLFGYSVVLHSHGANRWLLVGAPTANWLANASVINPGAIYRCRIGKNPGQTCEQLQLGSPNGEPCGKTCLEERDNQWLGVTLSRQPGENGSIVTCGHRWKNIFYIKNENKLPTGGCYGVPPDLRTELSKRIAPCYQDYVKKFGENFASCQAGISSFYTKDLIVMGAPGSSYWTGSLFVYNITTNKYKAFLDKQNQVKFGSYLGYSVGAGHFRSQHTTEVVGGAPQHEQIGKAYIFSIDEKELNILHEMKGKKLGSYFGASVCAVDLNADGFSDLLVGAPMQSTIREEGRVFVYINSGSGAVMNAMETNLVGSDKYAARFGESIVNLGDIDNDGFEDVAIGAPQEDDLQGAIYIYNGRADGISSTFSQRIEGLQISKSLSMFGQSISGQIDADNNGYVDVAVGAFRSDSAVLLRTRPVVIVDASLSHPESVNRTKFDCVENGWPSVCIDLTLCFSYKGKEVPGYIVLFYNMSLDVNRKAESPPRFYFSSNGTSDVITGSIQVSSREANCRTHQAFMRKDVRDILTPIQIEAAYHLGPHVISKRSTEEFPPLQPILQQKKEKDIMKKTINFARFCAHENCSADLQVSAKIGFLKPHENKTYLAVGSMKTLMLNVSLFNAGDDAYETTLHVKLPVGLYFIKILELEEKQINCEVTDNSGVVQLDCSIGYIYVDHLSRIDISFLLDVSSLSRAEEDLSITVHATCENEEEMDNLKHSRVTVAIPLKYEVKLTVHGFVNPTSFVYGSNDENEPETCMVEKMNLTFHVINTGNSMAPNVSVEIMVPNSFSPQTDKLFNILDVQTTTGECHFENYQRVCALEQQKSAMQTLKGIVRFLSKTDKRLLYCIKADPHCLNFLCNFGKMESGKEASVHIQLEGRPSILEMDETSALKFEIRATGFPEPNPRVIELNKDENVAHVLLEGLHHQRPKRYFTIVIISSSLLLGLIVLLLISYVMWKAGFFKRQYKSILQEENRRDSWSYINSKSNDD
Chain of α4β7 (P26010 20-798): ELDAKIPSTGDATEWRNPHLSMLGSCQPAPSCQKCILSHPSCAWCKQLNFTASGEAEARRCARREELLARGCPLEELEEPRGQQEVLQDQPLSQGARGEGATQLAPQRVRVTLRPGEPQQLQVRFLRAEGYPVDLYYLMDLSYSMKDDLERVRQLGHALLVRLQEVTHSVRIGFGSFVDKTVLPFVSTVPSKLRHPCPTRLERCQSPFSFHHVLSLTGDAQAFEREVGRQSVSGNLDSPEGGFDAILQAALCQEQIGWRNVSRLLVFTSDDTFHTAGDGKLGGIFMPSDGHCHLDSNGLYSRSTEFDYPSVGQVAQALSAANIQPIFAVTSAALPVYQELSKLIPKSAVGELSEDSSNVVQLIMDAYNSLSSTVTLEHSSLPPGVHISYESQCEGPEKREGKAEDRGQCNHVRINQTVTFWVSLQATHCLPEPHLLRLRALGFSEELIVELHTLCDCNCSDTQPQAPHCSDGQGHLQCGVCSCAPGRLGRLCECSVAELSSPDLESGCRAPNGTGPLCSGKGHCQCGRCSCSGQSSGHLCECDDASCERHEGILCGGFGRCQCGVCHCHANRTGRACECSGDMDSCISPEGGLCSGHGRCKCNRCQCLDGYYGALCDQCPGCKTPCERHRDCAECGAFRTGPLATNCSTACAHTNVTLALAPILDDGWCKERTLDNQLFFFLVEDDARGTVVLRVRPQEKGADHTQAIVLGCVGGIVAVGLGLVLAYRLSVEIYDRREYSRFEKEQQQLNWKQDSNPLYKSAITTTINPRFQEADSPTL
Procedure, shortened: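 Washed RPMI 8866 cells (200,000/well) in DMEM with 0.1% BSA, 10 mM HEPES pH 7, 1 mM MnCl2 adhered to rh MAdCAM-1/Fc-coated wells with serially diluted peptides, 30-45 min at 37 °C. After three washes, bound cells quantified by MTT, A570, cell-free background subtracted for dose response.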

[1] = Table 3-B, Potency (α4β7), range classes, read-out: α4β7 ELISA IC50
[2] = Table 3-B, Selectivity (α4β1), range classes, read-out: α4β1 ELISA IC50
[3] = Table 3-B, Potency (α4β7), range classes, read-out: α4β7 cell (Hu) IC50
[4] = Table 4-B, read-out: ELISA α4β7 IC50
[5] = Table 4-B, read-out: ELISA_α4β1 IC50
[6] = Table 4-B, read-out: Cell Adhesion α4β7 IC50

## CC(=O)N[C@@H]1C(=O)N(C)[C@@H](CCCNC(=N)N)C(=O)N[C@@H](CO)C(=O)N[C@@H](CC(=O)O)C(=O)N[C@@H]([C@@H](C)O)C(=O)N[C@@H](CC(C)C)C(=O)N[C@H](C(=O)N[C@@H](Cc2ccc(C(C)(C)C)cc2)C(=O)N[C@@H](CCC(=O)O)CC(=O)N(C)[C@@H](CCCCNC(=O)COCC(=O)NCCCC[C@@H](C(N)=O)N(C)C(=O)C[C@H](CCC(=O)O)NC(=O)[C@H](Cc2ccc(C(C)(C)C)cc2)NC(=O)[C@H]2NC(=O)[C@H](CC(C)C)NC(=O)[C@H]([C@@H](C)O)NC(=O)[C@H](CC(=O)O)NC(=O)[C@H](CO)NC(=O)[C@H](CCCNC(=N)N)N(C)C(=O)[C@@H](NC(C)=O)C(C)(C)SSC2(C)C)C(N)=O)C(C)(C)SSC1(C)C [compound 149] (I: Ac-[Pen][NMeR]SDTL[Pen][Phe(4-tBu)][β3hE][NMeK]-NH2 / II: Ac-[Pen][NMeR]SDTL[Pen][Phe(4-tBu)][β3hE][NMeK]-NH2; disulfide I:1-I:7, II:1-II:7; linker I:10-II:10 via Diglycolyl)
Rh integrin α4β7; [1]
  IC50: < 0.01 µM
α4β1; [2]
  IC50: 0.5 to 1 µM
α4β7; [3]
  IC50: < 0.01 µM

## CC(=O)N[C@@H]1C(=O)N(C)[C@@H](CCCNC(=N)N)C(=O)N[C@@H](CO)C(=O)N[C@@H](CC(=O)O)C(=O)N[C@@H]([C@@H](C)O)C(=O)N[C@@H](CC(C)C)C(=O)N[C@H](C(=O)N[C@@H](Cc2c[nH]c3ccccc23)C(=O)N[C@@H](CCC(=O)O)CC(=O)N[C@H](CCCCNC(=O)COCC(=O)NCCCC[C@@H](NC(=O)C[C@H](CCC(=O)O)NC(=O)[C@H](Cc2c[nH]c3ccccc23)NC(=O)[C@H]2NC(=O)[C@H](CC(C)C)NC(=O)[C@H]([C@@H](C)O)NC(=O)[C@H](CC(=O)O)NC(=O)[C@H](CO)NC(=O)[C@H](CCCNC(=N)N)N(C)C(=O)[C@@H](NC(C)=O)C(C)(C)SSC2(C)C)C(N)=O)C(N)=O)C(C)(C)SSC1(C)C [compound 213, [Ac-Pen-(N-Me-Arg)-Ser-Asp-Thr-Leu-Pen-Trp-(β-homoGlu)-(D-Lys)-NH2]2-DIG] (I: Ac-[Pen][NMeR]SDTL[Pen]W[β3hE][dK]-NH2 / II: Ac-[Pen][NMeR]SDTL[Pen]W[β3hE][dK]-NH2; disulfide I:1-I:7, II:1-II:7; linker I:10-II:10 via Diglycolyl)
Rh integrin α4β7; [4]
  IC50: 0.0047 µM
α4β1; [5]
  IC50: 0.539 µM
α4β7; [6]
  IC50: 0.012 µM

## CC(=O)N[C@H]1CSSC(C)(C)[C@@H](C(=O)N[C@@H](Cc2c[nH]c3ccccc23)C(=O)N[C@H](CCCCNC(=O)COCC(=O)NCCCC[C@@H](NC(=O)[C@H](Cc2c[nH]c3ccccc23)NC(=O)[C@H]2NC(=O)[C@H](CC(C)C)NC(=O)[C@H]([C@@H](C)O)NC(=O)[C@H](CC(=O)O)NC(=O)[C@H](CO)NC(=O)[C@H](CCCNC(=N)N)N(C)C(=O)[C@@H](NC(C)=O)CSSC2(C)C)C(N)=O)C(N)=O)NC(=O)[C@H](CC(C)C)NC(=O)[C@H]([C@@H](C)O)NC(=O)[C@H](CC(=O)O)NC(=O)[C@H](CO)NC(=O)[C@H](CCCNC(=N)N)N(C)C1=O [compound 204, (Ac-C-N-Me-R-S-D-T-L-Pen-W-k-NH2)2-DIG] (I: Ac-C[NMeR]SDTL[Pen]W[dK]-NH2 / II: Ac-C[NMeR]SDTL[Pen]W[dK]-NH2; disulfide I:1-I:7, II:1-II:7 (inferred); linker I:9-II:9 via Diglycolyl (inferred))
Rh integrin α4β7; [4]
  IC50: 0.002 µM
α4β1; [5]
  IC50: 0.463 µM
α4β7; [6]
  IC50: 0.022 µM

## CC(=O)N[C@@H]1C(=O)N(C)[C@@H](CCCNC(=N)N)C(=O)N[C@@H](CO)C(=O)N[C@@H](CC(=O)O)C(=O)N[C@@H]([C@@H](C)O)C(=O)N[C@@H](CC(C)C)C(=O)N[C@H](C(=O)N[C@@H](Cc2c[nH]c3ccccc23)C(=O)N[C@@H](CCC(=O)O)C(=O)N[C@H](CCCCNC(=O)COCC(=O)NCCCC[C@@H](NC(=O)[C@H](CCC(=O)O)NC(=O)[C@H](Cc2c[nH]c3ccccc23)NC(=O)[C@H]2NC(=O)[C@H](CC(C)C)NC(=O)[C@H]([C@@H](C)O)NC(=O)[C@H](CC(=O)O)NC(=O)[C@H](CO)NC(=O)[C@H](CCCNC(=N)N)N(C)C(=O)[C@@H](NC(C)=O)C(C)(C)SSC2(C)C)C(=O)O)C(=O)O)C(C)(C)SSC1(C)C [compound 78] (I: Ac-[Pen][NMeR]SDTL[Pen]WE[dK]-OH / II: Ac-[Pen][NMeR]SDTL[Pen]WE[dK]-OH; disulfide I:1-I:7, II:1-II:7; linker I:10-II:10 via Diglycolyl)
Rh integrin α4β7; [1]
  IC50: < 0.01 µM
α4β1; [2]
  IC50: 0.1 to 0.5 µM
α4β7; [3]
  IC50: < 0.01 µM

## CC(=O)N[C@H]1CSSC(C)(C)[C@@H](C(=O)N[C@@H](CCC(=O)O)C(=O)N[C@H](CCCCNC(=O)COCC(=O)NCCCC[C@@H](NC(=O)[C@H](CCC(=O)O)NC(=O)[C@H]2NC(=O)[C@H](CC(C)C)NC(=O)[C@H]([C@@H](C)O)NC(=O)[C@H](CC(=O)O)NC(=O)[C@H](CO)NC(=O)[C@H](CCCNC(=N)N)N(C)C(=O)[C@@H](NC(C)=O)CSSC2(C)C)C(N)=O)C(N)=O)NC(=O)[C@H](CC(C)C)NC(=O)[C@H]([C@@H](C)O)NC(=O)[C@H](CC(=O)O)NC(=O)[C@H](CO)NC(=O)[C@H](CCCNC(=N)N)N(C)C1=O [compound 205, (Ac-C-N-Me-R-S-D-T-L-Pen-E-k-NH2)2-DIG] (I: Ac-C[NMeR]SDTL[Pen]E[dK]-NH2 / II: Ac-C[NMeR]SDTL[Pen]E[dK]-NH2; disulfide I:1-I:7, II:1-II:7 (inferred); linker I:9-II:9 via Diglycolyl (inferred))
Rh integrin α4β7; [4]
  IC50: 0.0024 µM
α4β1; [5]
  IC50: 0.444 µM
α4β7; [6]
  IC50: 0.026 µM

## CC(=O)N[C@@H]1C(=O)N(C)[C@@H](CCCNC(=N)N)C(=O)N[C@@H](CO)C(=O)N[C@@H](CC(=O)O)C(=O)N[C@@H]([C@@H](C)O)C(=O)N[C@@H](CC(C)C)C(=O)N[C@H](C(=O)N[C@@H](Cc2ccc(C(C)(C)C)cc2)C(=O)N[C@@H](CCC(=O)O)CC(=O)N[C@H](CCCCNC(=O)COCC(=O)NCCCC[C@@H](NC(=O)C[C@H](CCC(=O)O)NC(=O)[C@H](Cc2ccc(C(C)(C)C)cc2)NC(=O)[C@H]2NC(=O)[C@H](CC(C)C)NC(=O)[C@H]([C@@H](C)O)NC(=O)[C@H](CC(=O)O)NC(=O)[C@H](CO)NC(=O)[C@H](CCCNC(=N)N)N(C)C(=O)[C@@H](NC(C)=O)C(C)(C)SSC2(C)C)C(N)=O)C(N)=O)C(C)(C)SSC1(C)C [compound 132] (I: Ac-[Pen][NMeR]SDTL[Pen][Phe(4-tBu)][β3hE][dK]-NH2 / II: Ac-[Pen][NMeR]SDTL[Pen][Phe(4-tBu)][β3hE][dK]-NH2; disulfide I:1-I:7, II:1-II:7; linker I:10-II:10 via Diglycolyl)
Rh integrin α4β7; [1]
  IC50: < 0.01 µM
α4β1; [2]
  IC50: 0.1 to 0.5 µM and 0.5 to 1 µM
α4β7; [3]
  IC50: < 0.01 µM

## CC(=O)N[C@@H]1C(=O)N[C@@H](CCCNC(=N)N)C(=O)N[C@@H](CO)C(=O)N[C@@H](CC(=O)O)C(=O)N[C@@H]([C@@H](C)O)C(=O)N[C@@H](CC(C)C)C(=O)N[C@H](C(=O)N[C@H](CCCCNC(=O)COCC(=O)NCCCC[C@@H](NC(=O)[C@@H]2CSSC(C)(C)[C@H](NC(C)=O)C(=O)N[C@@H](CCCNC(=N)N)C(=O)N[C@@H](CO)C(=O)N[C@@H](CC(=O)O)C(=O)N[C@@H]([C@@H](C)O)C(=O)N[C@@H](CC(C)C)C(=O)N2)C(N)=O)C(N)=O)CSSC1(C)C [compound 207, (Ac-Pen-R-S-D-T-L-C-k-NH2)2-DIG] (I: Ac-[Pen]RSDTLC[dK]-NH2 / II: Ac-[Pen]RSDTLC[dK]-NH2; disulfide I:1-I:7, II:1-II:7 (inferred); linker I:8-II:8 via Diglycolyl (inferred))
Rh integrin α4β7; [4]
  IC50: 0.026 µM
α4β7; [6]
  IC50: 0.049 µM

## CC(=O)N[C@@H]1C(=O)N(C)[C@@H](CCCNC(=N)N)C(=O)N[C@@H](CO)C(=O)N[C@@H](CC(=O)O)C(=O)N[C@@H]([C@@H](C)O)C(=O)N[C@@H](CC(C)C)C(=O)N[C@H](C(=O)N[C@@H](Cc2ccc3ccccc3c2)C(=O)N[C@@H](CCC(=O)O)C(=O)N[C@H](CCCCN)C(N)=O)C(C)(C)SSC1(C)C [compound 210, Ac-Pen-N-Me-R-S-D-T-L-Pen-2-Nal-E-k-NH2] (Ac-[Pen][NMeR]SDTL[Pen][2Nal]E[dK]-NH2; disulfide 1-7)
Rh integrin α4β7; [4]
  IC50: 0.011 µM
α4β1; [5]
  IC50: 0.2 µM

## CC(=O)N[C@@H]1C(=O)N(C)[C@@H](CCCNC(=N)N)C(=O)N[C@@H](CO)C(=O)N[C@@H](CC(=O)O)C(=O)N[C@@H]([C@@H](C)O)C(=O)N[C@@H](CC(C)C)C(=O)N[C@H](C(=O)N[C@@H](Cc2c[nH]c3ccccc23)C(=O)N[C@H](CCCCN)C(N)=O)C(C)(C)SSC1(C)C [compound 208, Ac-Pen-N-Me-R-S-D-T-L-Pen-W-k-NH2] (Ac-[Pen][NMeR]SDTL[Pen]W[dK]-NH2; disulfide 1-7)
Rh integrin α4β7; [4]
  IC50: 0.0305 µM
α4β7; [6]
  IC50: 0.412 µM
